# Experiments:
# [1] = molecular target: T1, Threonine--tRNA ligase (Salmonella enterica, UniProt A0A3F3IEK2); experiment: Binding affinity to full length recombinant salmonella enterica threonyl-tRNA synthetase assessed as dissociation constant in presence of glycine by isothermal titration calorimetry assay
# T1 sequence (A0A3F3IEK2 whole entry): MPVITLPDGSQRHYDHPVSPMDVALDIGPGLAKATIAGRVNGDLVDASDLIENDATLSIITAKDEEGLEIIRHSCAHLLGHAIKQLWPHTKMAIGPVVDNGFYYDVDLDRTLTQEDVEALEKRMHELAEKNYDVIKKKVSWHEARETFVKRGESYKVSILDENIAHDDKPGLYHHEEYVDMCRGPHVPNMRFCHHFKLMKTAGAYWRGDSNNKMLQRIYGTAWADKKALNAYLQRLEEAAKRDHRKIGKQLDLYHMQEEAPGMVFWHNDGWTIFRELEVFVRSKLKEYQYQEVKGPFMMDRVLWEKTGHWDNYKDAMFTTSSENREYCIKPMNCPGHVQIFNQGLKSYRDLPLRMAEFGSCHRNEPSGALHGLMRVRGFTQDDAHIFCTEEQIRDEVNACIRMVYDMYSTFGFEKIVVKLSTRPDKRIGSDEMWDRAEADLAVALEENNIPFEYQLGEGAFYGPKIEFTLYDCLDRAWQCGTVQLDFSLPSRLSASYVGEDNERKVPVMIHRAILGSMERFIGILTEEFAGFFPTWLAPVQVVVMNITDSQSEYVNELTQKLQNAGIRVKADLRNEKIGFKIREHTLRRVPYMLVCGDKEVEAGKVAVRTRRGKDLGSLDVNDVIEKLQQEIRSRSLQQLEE
# [2] = molecular target: T1, Threonine--tRNA ligase; experiment: Binding affinity to full length recombinant salmonella enterica threonyl-tRNA synthetase assessed as dissociation constant by isothermal titration calorimetry assay
# [3] = test system: Escherichia coli; experiment: Antibacterial activity against Escherichia coli acraB strain assessed as inhibition of bacterial growth incubated for 8 hrs by CLSI protocol based microdilution assay; format: functional
# [4] = test system: Salmonella enterica; experiment: Antibacterial activity against Salmonella enterica 87 strain assessed as inhibition of bacterial growth incubated for 8 hrs by CLSI protocol based microdilution assay; format: functional
# [5] = molecular target: T1, Threonine--tRNA ligase; experiment: Inhibition of recombinant salmonella enterica threonyl-tRNA synthetase assessed as reduction in enzyme activity incubated for 20 min by Kinase Glo luminescence assay
# [6] = test system: Staphylococcus aureus; experiment: Antibacterial activity against Staphylococcus aureus ATCC 29213 strain assessed as inhibition of bacterial growth incubated for 8 hrs by CLSI protocol based microdilution assay; format: functional
# [7] = test system: Staphylococcus aureus; experiment: Antibacterial activity against Staphylococcus aureus MRSA R3708 strain assessed as inhibition of bacterial growth incubated for 8 hrs by CLSI protocol based microdilution assay; format: functional
# [8] = test system: Enterococcus faecalis; experiment: Antibacterial activity against Enterococcus faecalis ATCC 29212 strain assessed as inhibition of bacterial growth incubated for 8 hrs by CLSI protocol based microdilution assay; format: functional
# [9] = test system: Pseudomonas aeruginosa; experiment: Antibacterial activity against Pseudomonas aeruginosa ATCC27853 strain assessed as inhibition of bacterial growth incubated for 8 hrs by CLSI protocol based microdilution assay; format: functional
# [10] = molecular target: T2, Threonine--tRNA ligase (Salmonella enterica) (UniProt A0A3F3IEK2); experiment: Binding affinity to recombinant salmonella enterica threonyl-tRNA synthetase assessed as change in melting temperature at 0.1 mM by fluorescence-based thermal shift assay
# T2 sequence (whole entry): T1 sequence (A0A3F3IEK2 whole entry)
# [11] = molecular target: T1, Threonine--tRNA ligase; experiment: Binding affinity to full length recombinant salmonella enterica threonyl-tRNA synthetase assessed as dissociation constant in presence of L-threonine by isothermal titration calorimetry assay
# [12] = molecular target: T2, Threonine--tRNA ligase (Salmonella enterica); experiment: Inhibition of recombinant salmonella enterica threonyl-tRNA synthetase assessed as reduction in enzyme activity at 10 uM incubated for 20 min by Kinase Glo luminescence assay relative to control
# [13] = molecular target: T1, Threonine--tRNA ligase; experiment: Binding affinity to full length recombinant salmonella enterica threonyl-tRNA synthetase assessed as dissociation constant in presence of tRNA Threonine by isothermal titration calorimetry assay
# [14] = test system: Escherichia coli; experiment: Antibacterial activity against Escherichia coli ATCC 25922 strain assessed as inhibition of bacterial growth incubated for 8 hrs by CLSI protocol based microdilution assay; format: functional
# [15] = molecular target: T1, Threonine--tRNA ligase; experiment: Binding affinity to full length recombinant salmonella enterica threonyl-tRNA synthetase assessed as dissociation constant in presence of ATP by isothermal titration calorimetry assay
# [16] = molecular target: T1, Threonine--tRNA ligase; experiment: Binding affinity to full length recombinant salmonella enterica threonyl-tRNA synthetase assessed as dissociation constant in presence of tRNA Leucine by isothermal titration calorimetry assay
# [17] = test system: Salmonella enterica; experiment: Antibacterial activity against Salmonella enterica 87 strain assessed as inhibition of bacterial growth incubated in M9 medium for 8 hrs by CLSI protocol based microdilution assay; format: functional
Kd [1] [µM],Kd [2] [µM],MIC [3] [µg/mL],MIC [4] [µg/mL],IC50 [5] [µM],MIC [6] [µg/mL],MIC [7] [µg/mL],MIC [8] [µg/mL],MIC [9] [µg/mL],ΔTm [10] [°C],Kd [11] [µM],inhibition [12] [%],Kd [13] [µM],MIC [14] [µg/mL],Kd [15] [µM],Kd [16] [µM],MIC [17] [µg/mL],Compound
0.0444,0.0354,≥ 128,≥ 128,0.019,≥ 128,≥ 128,≥ 128,≥ 128,33.6,0.29,> 99,0.166,≥ 128,0.0751,0.0368,–,C[C@@H](O)[C@H](N)C(=O)N[C@@H](CNC(=O)CCn1cnc2cc(Cl)c(Cl)cc2c1=O)c1cccc(-c2ccc3c(c2)CNC3=O)c1
–,–,64,64,–,≥ 128,≥ 128,64,≥ 128,17.6,–,45,–,≥ 128,–,–,16,C[C@@H](O)[C@H](N)C(=O)NCC=CCn1cnc2cc(Cl)c(Cl)cc2c1=O
–,–,16,≥ 128,0.52,32,16,32,16,23,–,> 99,–,≥ 128,–,–,–,C[C@@H](O)[C@H](N)C(=O)N[C@@H](CNC(=O)CCn1cnc2cc(Cl)c(Cl)cc2c1=O)c1cccc(-c2ccccc2)c1
